Test results reported in patent US9481654B2, “Compositions and methods for inhibition of the JAK pathway” (Rigel Pharmaceuticals, Inc., priority 2006, dated 2016).

Key:
Format in all cases: cell-based
[1] = test system: primary human T-cells (IL-2 induced proliferation, JAK-1/JAK-3, Stat-5); assay: Primary Human T-Cell Proliferation Assay Stimulated with IL-2 (CellTiter-Glo); settings: Table III Example 4
Experimental: In this assay, primary human T-cells derived from peripheral blood and pre-activated through stimulation of the T-cell receptor and CD28, proliferate in culture in response to the cytokine Interleukin-2 (IL-2). This proliferative response is dependent on the activation of JAK1 and JAK3 tyrosine kinases, which phosphorylate and activate the transcription factor Stat-5. The primary human T-cells are incubated with the 2,4-pyrimidinediamine compounds in the presence of IL-2 for 72 hours, and at the assay endpoint intracellular ATP concentrations are measured to assess cell viability. A reduction in cell proliferation compared to control conditions is indicative of inhibition of the JAK kinase pathway.
Primary human T-cells derived from peripheral blood and pre-activated through stimulation of the T-cell receptor and CD28 proliferate in vitro in response to the cytokine Interleukin-2 (IL-2). This proliferative response is dependent on the activation of JAK-1 and JAK-3 tyrosine kinases, which phosphorylate and activate the transcription factor Stat-5.
Human primary T cells were prepared as follows. […] The lymphocytes at the serum: ficoll interface were recovered and washed twice with 5 volumes of PBS. […] The primary T-cells were stimulated for 3 to 4 days, then transferred to a fresh flask and maintained in RPMI with 10% FBS and 40 U/mL IL-2.
Primary T-cells were washed twice with PBS to remove the IL-2 and resuspended in Yssel's medium at 2×10^6 cells/mL. 50 μL of cell suspension containing 80 U/mL IL-2 was added to each well of a flat bottom 96 well black plate. For the unstimulated control, IL-2 was omitted from the last column on the plate. […] 50 μL of 2× compound was added per well in duplicate and the cells were allowed to proliferate for 72 hours at 37° C.
Proliferation was measured using CellTiter-Glo® Luminescent Cell Viability Assay (Promega), which determines the number of viable cells in culture based on quantitation of the ATP present, as an indicator of metabolically active cells. The substrate was thawed and allowed to come to room temperature. After mixing the Cell Titer-Glo reagent and diluent together, 100 μL was added to each well. The plates were mixed on an orbital shaker for two minutes to induce lysis and incubated at room temperature for an additional ten minutes to allow the signal to equilibrate.

[2] = test system: IL-4 stimulated CD23 upregulation in human Ramos B cells (JAK-1/JAK-3, Stat-6); assay: Assay for Ramos B-Cell Line Stimulated with IL-4 (CD23 upregulation, FACS); settings: Table III Example 3
How it was run: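 Log-phase Ramos B cells (5×10^4 per point, RPMI with 5% serum) pre-incubated with compound or DMSO 1 h at 37° C, then stimulated with IL-4 at 50 units/mL final for 20-24 h. CD23 upregulation measured by staining and flow cytometry.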

[3] = test system: IFNγ induced ICAM-1 (CD54) up-regulation in U937 human monocytic cells (JAK/Stat pathway); assay: U937 IFNγ ICAM1 FACS Assay; settings: Table III Example 6, 10 ng/mL IFNγ, 18-24 hours
From the text: A549 lung epithelial cells and U937 cells up-regulate ICAM-1 (CD54) surface expression in response to a variety of different stimuli. Therefore, using ICAM-1 expression as readout, test compound effects on different signaling pathways can be assessed in the same cell type. Stimulation with IL-1β through the IL-1β receptor activates the TRAF6/NFκB pathway resulting in up-regulation of ICAM-1. IFNγ induces ICAM-1 up-regulation through activation of the JAK1/JAK2 pathway. The up-regulation of ICAM-1 can be quantified by flow cytometry across a compound dose curve and EC50 values are calculated. Exemplary assays of this type are described in greater detail in Examples 5 and 6. U937 human monocytic cells up-regulate ICAM-1 (CD54) surface expression in response to a variety of different stimuli. Therefore, using ICAM-1 expression as readout, compound effects on different signaling pathways can be assessed in the same cell type. IFNγ up-regulates ICAM-1 through activation of the JAK/Stat pathway. In this example, the up-regulation of ICAM-1 by IFNγ was assessed. […] The cells were then plated at a concentration of 100,000 cells per 160 μL in 96 well flat bottom plates. The test compounds were then diluted as follows: 10 mM test compound was diluted 1:5 in DMSO (3 μL 10 mM test compound in 12 μL DMSO), followed by a 1:3 serial dilution of test compound in DMSO (6 μL test compound serially diluted into 12 μL DMSO to give 3-fold dilutions). […] For control wells, 4 μL of DMSO was diluted into 76 μL 10% RPMI. […] The cells and compounds were then pre-incubated for 30 minutes at 37° C. with 5% CO2. […] The cells were kept under conditions for stimulation for 18-24 hours at 37° C. with 5% CO2. […] Cells were spun down at 1000 rpm for 5 minutes at 4° C., following which the supernatant was removed. […] The cells were then incubated on ice in the dark for 30 minutes. […] After suspension, the cells were centrifuged at 1000 rpm for 5 min at 4° C. […] Detection was performed using a BD LSR I System Flow Cytometer, purchased from BD Biosciences of San Jose, Calif. The live cells were gated for live scatter and the geometric mean of ICAM-APC was measured (Becton-Dickinson CellQuest software version 3.3, Franklin Lakes, N.J.). Both % live cells and ICAM-1 expression was analyzed. The assays for the test compounds were carried out in parallel with a control compound of known activity.

| IC50 ([2]; Homo sapiens, Ramos) | IC50 ([3]; Homo sapiens, U-937) | SMILES | IC50 ([1]; Homo sapiens, T-cell) | IC50 [1] | IC50 [2] | IC50 [3] |
| --- | --- | --- | --- | --- | --- | --- |
| 227 nM | 4530 nM | C#CCNS(=O)(=O)Cc1cccc(Nc2nc(Nc3cccc(S(N)(=O)=O)c3)ncc2F)c1 [Compound I-3, N2-(3-Aminosulfonylphenyl)-5-fluoro-N4-[3-(prop-2-ynylaminosulfonylmethyl)phenyl]-2,4-pyrimidinediamine] | 458 nM | – | – | – |
| – | – | CCS(=O)(=O)NCc1ccc(Nc2nc(Nc3ccc(S(N)(=O)=O)cc3)ncc2F)cc1 [Compound I-8, N2-(4-aminosulfonyl)phenyl-N4-(4-ethylsulfonylaminomethyl)phenyl-5-fluoro-2,4-pyrimidinediamine] | – | 275 nM | 235 nM | 3250 nM |
| – | – | CCS(=O)(=O)NCc1ccc(Nc2nc(Nc3cccc(S(N)(=O)=O)c3)ncc2F)cc1 [Compound I-9, N2-(3-aminosulfonyl)phenyl-N4-(4-ethylsulfonylaminomethyl)phenyl-5-fluoro-2,4-pyrimidinediamine] | – | 70.2 nM | 80.1 nM | 993 nM |
| – | – | CCS(=O)(=O)NCc1cccc(Nc2nc(Nc3ccc(S(N)(=O)=O)cc3)ncc2F)c1 [Compound I-11, N2-(4-aminosulfonyl)phenyl-N4-(3-ethylsulfonylaminomethyl)phenyl-5-fluoro-2,4-pyrimidinediamine] | – | 588 nM | 250 nM | 2790 nM |
| – | – | CCS(=O)(=O)NCCc1ccc(Nc2nc(Nc3ccc(S(N)(=O)=O)cc3)ncc2F)cc1 [Compound I-14, N2-(4-aminosulfonyl)phenyl-N4-[4-(2-ethylsulfonylamino)ethyl]phenyl-5-fluoro-2,4-pyrimidinediamine] | – | 835 nM | 144 nM | 5270 nM |
| – | – | CCS(=O)(=O)NCCc1ccc(Nc2nc(Nc3cccc(S(N)(=O)=O)c3)ncc2F)cc1 [Compound I-15, N2-(3-aminosulfonyl)phenyl-N4-[4-(2-ethylsulfonylamino)ethyl]phenyl-5-fluoro-2,4-pyrimidinediamine] | – | 184 nM | 65.8 nM | 3110 nM |
| – | – | CCCN(Cc1ccc(Nc2nc(Nc3cccc(S(N)(=O)=O)c3)ncc2F)cc1)S(=O)(=O)CC [Compound I-18, N2-(3-aminosulfonyl)phenyl-N4-[4-(N-ethylsulfonyl-N-propylamino)methyl]phenyl-5-fluoro-2,4-pyrimidinediamine] | – | 272 nM | 107 nM | 1290 nM |
| – | – | CCCN(Cc1ccc(Nc2nc(Nc3ccc(C)c(S(N)(=O)=O)c3)ncc2F)cc1)S(=O)(=O)CC [Compound I-19, N2-(3-aminosulfonyl-4-methyl)phenyl-N4-[4-(N-ethylsulfonyl-N-propylamino)methyl]phenyl-5-fluoro-2,4-pyrimidinediamine] | – | 494 nM | 148 nM | 1640 nM |
| – | – | CCS(=O)(=O)NCc1ccc(Nc2nc(Nc3ccc(S(N)(=O)=O)cc3)ncc2C)cc1 [Compound I-20, N2-(4-aminosulfonyl)phenyl-N4-(4-ethylsulfonylaminomethyl)phenyl-5-methyl-2,4-pyrimidinediamine] | – | 46.1 nM | 73.6 nM | 621 nM |
| – | – | CCS(=O)(=O)NCc1ccc(Nc2nc(Nc3ccc(C)c(S(N)(=O)=O)c3)ncc2C)cc1 [Compound I-22, N2-(3-aminosulfonyl-4-methyl)phenyl-N4-(4-ethylsulfonylaminomethyl)phenyl-5-methyl-2,4-pyrimidinediamine] | – | 82.2 nM | 25.9 nM | 207 nM |
| – | – | NS(=O)(=O)c1ccc(Nc2ncc(F)c(Nc3ccc(CNS(=O)(=O)C4CC4)cc3)n2)cc1 [Compound I-23, N2-(4-aminosulfonyl)phenyl-N4-(4-cyclopropylsulfonylaminomethyl)phenyl-5-fluoro-2,4-pyrimidinediamine] | – | 198 nM | 126 nM | 3850 nM |
| – | – | NS(=O)(=O)c1cccc(Nc2ncc(F)c(Nc3ccc(CNS(=O)(=O)C4CC4)cc3)n2)c1 [Compound I-24, N2-(3-aminosulfonyl)phenyl-N4-(4-cyclopropylsulfonylaminomethyl)phenyl-5-fluoro-2,4-pyrimidinediamine] | – | 32 nM | 59.2 nM | 508 nM |
| – | – | Cc1ccc(Nc2ncc(F)c(Nc3ccc(CNS(=O)(=O)C4CC4)cc3)n2)cc1S(N)(=O)=O [Compound I-25, N2-(3-aminosulfonyl-4-methyl)phenyl-N4-(4-cyclopropylsulfonylaminomethyl)phenyl-5-fluoro-2,4-pyrimidinediamine] | – | 63.9 nM | 69 nM | 363 nM |
| – | – | CCS(=O)(=O)N[C@@H](C)c1ccc(Nc2nc(Nc3ccc(C)c(S(N)(=O)=O)c3)ncc2F)cc1 [Compound I-28, N2-(3-aminosulfonyl-4-methyl)phenyl-N4-[4-(1S-ethylsulfonylamino)ethyl]phenyl-5-fluoro-2,4-pyrimidinediamine] | – | 376 nM | 115 nM | 1110 nM |
| – | – | CCS(=O)(=O)N[C@H](C)c1ccc(Nc2nc(Nc3ccc(C)c(S(N)(=O)=O)c3)ncc2F)cc1 [Compound I-31, N2-(3-aminosulfonyl-4-methyl)phenyl-N4-[4-(1R-ethylsulfonylamino)ethyl]phenyl-5-fluoro-2,4-pyrimidinediamine] | – | 283 nM | 104 nM | 1020 nM |
| – | – | NS(=O)(=O)c1cccc(Nc2ncc(F)c(Nc3cccc(CNS(=O)(=O)C4CC4)c3)n2)c1 [Compound I-33, N2-(3-aminosulfonyl)phenyl-N4-(3-cyclopropylsulfonylaminomethyl)phenyl-5-fluoro-2,4-pyrimidinediamine] | – | 314 nM | 102 nM | 1410 nM |
| – | – | NS(=O)(=O)c1cccc(Nc2ncc(F)c(Nc3ccc(CNS(=O)(=O)c4cccs4)cc3)n2)c1 [Compound I-36, N2-(3-aminosulfonyl)phenyl-5-fluoro-N4-[4-(thiophen-2-yl)sulfonylaminomethyl]phenyl-2,4-pyrimidinediamine] | – | 63.9 nM | 40.8 nM | 326 nM |
| – | – | CCS(=O)(=O)NCCc1ccc(Nc2nc(Nc3ccc(S(N)(=O)=O)cc3)ncc2C)cc1 [Compound I-38, N2-(4-aminosulfonyl)phenyl-N4-[4-(2-ethylsulfonylamino)ethyl]phenyl-5-methyl-2,4-pyrimidinediamine] | – | 190 nM | 122 nM | 855 nM |
